System: microorganisms with acquired resistance
Assay: microbe, parasite or virus in culture
Format: cell-based
Conditions: for Peptide MIC: in µg/mL

Question: For KWKSFIKKLTSAAKKVVTTAKPLISS [MBI 26], which “Gentamicin MIC + Peptide” value (A. baumannii ABI001) is on record?
Answer: Its value is 4 µg/mL.

Question: And the “Peptide MIC + Gentamicin” value (A. baumannii ABI001)?
Answer: The value was 4 µg/mL.

Question: What about the “Peptide MIC Alone” value (A. baumannii ABI001, Gentamicin section) of the same sequence?
Answer: Its value is 8 µg/mL.

Question: What about the “Gentamicin MIC + Peptide” value (A. baumannii ABI002) of the same sequence?
Answer: The value was 0.5 µg/mL.

Question: What about the “Peptide MIC + Gentamicin” value (A. baumannii ABI002) of the same sequence?
Answer: The value was 4 µg/mL.

Question: What about the “Peptide MIC Alone” value (A. baumannii ABI002, Gentamicin section) of the same sequence?
Answer: Its value is 8 µg/mL.

Question: And the “Ceftriaxone MIC + Peptide” value (A. baumannii ABI005)?
Answer: Its value is 0.5 µg/mL.

Question: And the “Peptide MIC + Ceftriaxone” value (A. baumannii ABI005)?
Answer: Its value is 1 µg/mL.

Question: And the “Peptide MIC Alone” value (A. baumannii ABI005, Ceftriaxone section)?
Answer: The value was 2 µg/mL.

Question: What about the “Ceftriaxone MIC + Peptide” value (A. baumannii ABI006) of the same sequence?
Answer: Its value is 8 µg/mL.

Question: What about the “Peptide MIC + Ceftriaxone” value (A. baumannii ABI006) of the same sequence?
Answer: Its value is 1 µg/mL.

Question: And the “Peptide MIC Alone” value (A. baumannii ABI006, Ceftriaxone section)?
Answer: The value was 2 µg/mL.

Question: And the “Peptide MIC + Piperacillin” value (A. calcoaceticus 2)?
Answer: The value was 16 µg/mL.

Question: What about the “Piperacillin MIC + Peptide” value (A. calcoaceticus 2) of the same sequence?
Answer: Its value is 4 µg/mL.

Question: What about the “Peptide MIC Alone” value (A. calcoaceticus 2, Piperacillin section) of the same sequence?
Answer: The value was 32 µg/mL.

Question: What about the “Ciprofloxacin MIC + Peptide” value (A. calcoaceticus 5) of the same sequence?
Answer: The value was 0.25 µg/mL.

Question: And the “Peptide MIC + Ciprofloxacin” value (A. calcoaceticus 5)?
Answer: Its value is 16 µg/mL.

Question: And the “Peptide MIC Alone” value (A. calcoaceticus 5, Ciprofloxacin section)?
Answer: The value was greater than 32 µg/mL.

Question: What about the “Peptide MIC + Piperacillin” value (A. calcoaceticus 7) of the same sequence?
Answer: The value was 8 µg/mL.

Question: And the “Piperacillin MIC + Peptide” value (A. calcoaceticus 7)?
Answer: Its value is 4 µg/mL.

Question: And the “Peptide MIC Alone” value (A. calcoaceticus 7, Piperacillin section)?
Answer: The value was greater than 32 µg/mL.

Question: What about the “Peptide MIC” value (A. calcoaceticus, combination with Ceftazidime) of the same sequence?
Answer: Its value is 32.

Question: What about the “Peptide MIC” value (A. calcoaceticus, combination with Ciprofloxacin) of the same sequence?
Answer: Its value is 4.

Question: And the “Ceftriaxone MIC + Peptide” value (B. cepacia BC003)?
Answer: The value was 8 µg/mL.

Question: And the “Peptide MIC + Ceftriaxone” value (B. cepacia BC003)?
Answer: The value was 0.125 µg/mL.

Question: And the “Peptide MIC Alone” value (B. cepacia BC003, Ceftriaxone section)?
Answer: The value was greater than 128 µg/mL.

Question: What about the “Peptide MIC + Piperacillin” value (E. cloacae 13) of the same sequence?
Answer: The value was 8 µg/mL.

Question: What about the “Piperacillin MIC + Peptide” value (E. cloacae 13) of the same sequence?
Answer: The value was 4 µg/mL.

Question: And the “Peptide MIC Alone” value (E. cloacae 13, Piperacillin section)?
Answer: The value was greater than 32 µg/mL.

Question: What about the “Ciprofloxacin MIC + Peptide” value (E. cloacae 16) of the same sequence?
Answer: The value was 0.25 µg/mL.

Question: And the “Peptide MIC + Ciprofloxacin” value (E. cloacae 16)?
Answer: The value was 16 µg/mL.

Question: What about the “Peptide MIC Alone” value (E. cloacae 16, Ciprofloxacin section) of the same sequence?
Answer: Its value is greater than 32 µg/mL.

Question: What about the “Ciprofloxacin MIC + Peptide” value (E. cloacae 17) of the same sequence?
Answer: The value was 0.25 µg/mL.

Question: What about the “Peptide MIC + Ciprofloxacin” value (E. cloacae 17) of the same sequence?
Answer: Its value is 16 µg/mL.

Question: And the “Peptide MIC Alone” value (E. cloacae 17, Ciprofloxacin section)?
Answer: The value was greater than 32 µg/mL.

Question: And the “Peptide MIC + Piperacillin” value (E. cloacae 19)?
Answer: The value was 16 µg/mL.

Question: And the “Piperacillin MIC + Peptide” value (E. cloacae 19)?
Answer: The value was 4 µg/mL.

Question: And the “Peptide MIC Alone” value (E. cloacae 19, Piperacillin section)?
Answer: The value was greater than 32 µg/mL.

Question: What about the “Ceftriaxone MIC + Peptide” value (E. cloacae ECL015) of the same sequence?
Answer: The value was 4 µg/mL.

Question: And the “Peptide MIC + Ceftriaxone” value (E. cloacae ECL015)?
Answer: Its value is 4 µg/mL.

Question: And the “Peptide MIC Alone” value (E. cloacae ECL015, Ceftriaxone section)?
Answer: Its value is 32 µg/mL.

Question: What about the “Peptide MIC + Piperacillin” value (H. influenzae 1) of the same sequence?
Answer: Its value is 32 µg/mL.

Question: What about the “Piperacillin MIC + Peptide” value (H. influenzae 1) of the same sequence?
Answer: The value was 4 µg/mL.

Question: And the “Peptide MIC Alone” value (H. influenzae 1, Piperacillin section)?
Answer: The value was greater than 128 µg/mL.

Question: What about the “Peptide MIC + Piperacillin” value (H. influenzae 2) of the same sequence?
Answer: Its value is 16 µg/mL.

Question: What about the “Piperacillin MIC + Peptide” value (H. influenzae 2) of the same sequence?
Answer: Its value is 16 µg/mL.

Question: And the “Peptide MIC Alone” value (H. influenzae 2, Piperacillin section)?
Answer: The value was greater than 128 µg/mL.

Question: What about the “Peptide MIC + Piperacillin” value (P. aeruginosa 7) of the same sequence?
Answer: Its value is 32 µg/mL.

Question: What about the “Piperacillin MIC + Peptide” value (P. aeruginosa 7) of the same sequence?
Answer: Its value is 32 µg/mL.

Question: And the “Peptide MIC Alone” value (P. aeruginosa 7, Piperacillin section)?
Answer: Its value is greater than 128 µg/mL.

Question: What about the “Peptide MIC + Piperacillin” value (P. aeruginosa 23) of the same sequence?
Answer: Its value is 32 µg/mL.

Question: And the “Piperacillin MIC + Peptide” value (P. aeruginosa 23)?
Answer: Its value is 4 µg/mL.

Question: What about the “Peptide MIC Alone” value (P. aeruginosa 23, Piperacillin section) of the same sequence?
Answer: The value was greater than 64 µg/mL.

Question: What about the “Peptide MIC + Piperacillin” value (P. aeruginosa 26) of the same sequence?
Answer: Its value is 32 µg/mL.

Question: And the “Piperacillin MIC + Peptide” value (P. aeruginosa 26)?
Answer: The value was 8 µg/mL.

Question: What about the “Peptide MIC Alone” value (P. aeruginosa 26, Piperacillin section) of the same sequence?
Answer: Its value is greater than 32 µg/mL.

Question: What about the “Ciprofloxacin MIC + Peptide” value (P. aeruginosa 30) of the same sequence?
Answer: The value was 0.25 µg/mL.

Question: And the “Peptide MIC + Ciprofloxacin” value (P. aeruginosa 30)?
Answer: Its value is 2 µg/mL.

Question: And the “Peptide MIC Alone” value (P. aeruginosa 30, Ciprofloxacin section)?
Answer: Its value is greater than 32 µg/mL.

Question: And the “Ciprofloxacin MIC + Peptide” value (P. aeruginosa 31)?
Answer: Its value is 0.25 µg/mL.

Question: And the “Peptide MIC + Ciprofloxacin” value (P. aeruginosa 31)?
Answer: Its value is 16 µg/mL.

Question: And the “Peptide MIC Alone” value (P. aeruginosa 31, Ciprofloxacin section)?
Answer: The value was greater than 32 µg/mL.

Question: What about the “Gentamicin MIC + Peptide” value (P. aeruginosa PA023) of the same sequence?
Answer: Its value is 4 µg/mL.

Question: What about the “Peptide MIC + Gentamicin” value (P. aeruginosa PA023) of the same sequence?
Answer: Its value is 64 µg/mL.

Question: What about the “Peptide MIC Alone” value (P. aeruginosa PA023, Gentamicin section) of the same sequence?
Answer: Its value is greater than 128 µg/mL.

Question: And the “Peptide MIC + Tobramycin” value (P. aeruginosa PA031)?
Answer: Its value is 16 µg/mL.

Question: What about the “Tobramycin MIC + Peptide” value (P. aeruginosa PA031) of the same sequence?
Answer: Its value is 4 µg/mL.

Question: What about the “Peptide MIC Alone” value (P. aeruginosa PA031, Tobramycin section) of the same sequence?
Answer: The value was 32 µg/mL.

Question: And the “Gentamicin MIC + Peptide” value (P. aeruginosa PA041)?
Answer: The value was 4 µg/mL.

Question: What about the “Peptide MIC + Gentamicin” value (P. aeruginosa PA041) of the same sequence?
Answer: The value was 16 µg/mL.

Question: And the “Ciprofloxacin MIC + Peptide” value (P. aeruginosa PA41)?
Answer: The value was 1 µg/mL.

Question: What about the “Peptide MIC + Ciprofloxacin” value (P. aeruginosa PA41) of the same sequence?
Answer: Its value is 32 µg/mL.

Question: And the “Peptide MIC Alone” value (P. aeruginosa PA41, Ciprofloxacin section)?
Answer: Its value is 128 µg/mL.

Question: What about the “Peptide MIC Alone” value (P. aeruginosa PA041, Gentamicin section) of the same sequence?
Answer: The value was 64 µg/mL.

Question: And the “Ciprofloxacin MIC + Peptide” value (P. aeruginosa PA77)?
Answer: The value was 0.125 µg/mL.

Question: What about the “Peptide MIC + Ciprofloxacin” value (P. aeruginosa PA77) of the same sequence?
Answer: Its value is 64 µg/mL.

Question: And the “Peptide MIC Alone” value (P. aeruginosa PA77, Ciprofloxacin section)?
Answer: Its value is 128 µg/mL.

Question: And the “Peptide MIC” value (S. aureus, combination with Ampicillin)?
Answer: Its value is 0.25.

Question: And the “Peptide MIC” value (S. aureus, combination with Mupirocin)?
Answer: Its value is 4.

Question: And the “Peptide MIC + Tobramycin” value (S. epidermidis SE068)?
Answer: Its value is 0.5 µg/mL.

Question: And the “Tobramycin MIC + Peptide” value (S. epidermidis SE068)?
Answer: The value was 4 µg/mL.

Question: What about the “Peptide MIC Alone” value (S. epidermidis SE068, Tobramycin section) of the same sequence?
Answer: Its value is 2 µg/mL.

Question: What about the “Peptide MIC + Tobramycin” value (S. epidermidis SE071) of the same sequence?
Answer: Its value is 8 µg/mL.

Question: What about the “Tobramycin MIC + Peptide” value (S. epidermidis SE071) of the same sequence?
Answer: The value was 0.125 µg/mL.

Question: And the “Peptide MIC Alone” value (S. epidermidis SE071, Tobramycin section)?
Answer: The value was 16 µg/mL.

Question: And the “Peptide MIC” value (S. epidermidis, combination with Clindamycin)?
Answer: Its value is 2.

Question: What about the “Peptide MIC” value (S. haemolyticus, combination with Clindamycin) of the same sequence?
Answer: Its value is 1.

Question: What about the “Peptide MIC” value (S. haemolyticus, combination with Methicillin) of the same sequence?
Answer: The value was 2.

Question: And the “Peptide MIC + Piperacillin” value (S. maltophilia 2)?
Answer: Its value is 2 µg/mL.

Question: What about the “Piperacillin MIC + Peptide” value (S. maltophilia 2) of the same sequence?
Answer: The value was 16 µg/mL.

Question: And the “Peptide MIC Alone” value (S. maltophilia 2, Piperacillin section)?
Answer: Its value is 4 µg/mL.

Question: And the “Peptide MIC + Piperacillin” value (S. maltophilia 4)?
Answer: The value was 8 µg/mL.

Question: And the “Piperacillin MIC + Peptide” value (S. maltophilia 4)?
Answer: The value was 16 µg/mL.

Question: What about the “Peptide MIC Alone” value (S. maltophilia 4, Piperacillin section) of the same sequence?
Answer: Its value is 16 µg/mL.

Question: And the “Ciprofloxacin MIC + Peptide” value (S. maltophilia 34)?
Answer: The value was 0.25 µg/mL.

Question: What about the “Peptide MIC + Ciprofloxacin” value (S. maltophilia 34) of the same sequence?
Answer: The value was 8 µg/mL.

Reference: patent US20020035061A1, “COMPOSITIONS AND METHODS FOR TREATING INFECTIONS USING CATIONIC PEPTIDES ALONE OR IN COMBINATION WITH ANTIBIOTICS” (priority 1996, published 2002)
